# From patent publication US12402627B2, “Metal complexes for promoting growth in a photosynthetic organism” (Imperial College Innovations Limited, priority 2018, dated 2025)
# Legend:
# [1] = Kinetic measurement of HCO3− dehydration via stopped flow; assay type: biochemical; details: for Dehydration kobs: pH 7.4, 25° C.
# Source text: (§1) The hydration and dehydration rate measurements were undertaken by detecting the associated pH change through the use of an appropriate colorimetric pH indicator via stopped-flow equipment (Applied Photophysics SX-20 Stopped-flow Spectrometer) as described by B. H. Gibbons et al. (J. Biol. Chem., 238(10), (1963), 3502-3507). The pH time-dependence of CO2 hydration or HCO3− dehydration was observed via the absorbance change of a buffered indicator solution in order to measure the change in Vhydr/dehydr over a concentration range of zinc mimic, and to determine the observed rate constant (kobs) for each reaction.
# (§2) Following the procedure reported by K. Nakata et al. (J. Inorg. Biochem., 89, (2002), 255-266), a 0.1 M buffer solution containing 10×10^−5M indicator, 0.2 M NaClO4 and varying concentrations of the zinc complex in DMSO 1:9 H2O were loaded into one syringe and a CO2 or HCO3− aqueous solution in the other. […] The saturated solution was diluted appropriately to give the desired concentration of CO2. HCO3− solutions were prepared by dissolving NaHCO3 in water to give the desired concentration of HCO3−. The buffer-indicator pairs were chosen based upon their similar pKa's, and the pH of the buffer-indicator solution was adjusted to match these pKa's to maximize sensitivity to pH change (see Table 2).
# (§3) Upon mixing of the two syringes, the change in absorbance over time was measured at 25° C. For each buffer solution employed over the tested pH range, the buffer factor (change in absorbance vs concentration of HCl/NaOH) and linearity of CO2 and HCO3− (change in absorbance vs concentration of CO2/HCO3−) were determined as controls.
# (§4) Based upon the linearity of the response between CO2 or HCO3− concentration and change in absorbance, appropriate concentrations of CO2 or HCO3− were chosen within the linear range for the subsequent complex runs. At each concentration of complex, the Vhydr (rate of hydration) and Vdehyd (rate of dehydration) was measured and kobs (observed rate constant) was calculated as per the procedure of by K. Nakata et al. (J. Inorg. Biochem., 89, (2002), 255-266).
# (§5) Briefly, Vhyd/dehyd=−Q(A0−Ae)[d(In(A−Ae))/dt]t→0, where Q=buffer factor. The function [d(In(A−Ae))/dt]t→0 was taken from fitting the first linear portion of the time-dependent absorbance data with a single exponential decay function. kobs was calculated as the slope of the linear fit between mimic concentration and Vhyd/dehyd/[S]. kcat (catalytic rate constant) was calculated as the pH independent catalyst rate constant as per K. Nakata et al. (J. Inorg. Biochem., 89, (2002), 255-266) and L. Koziol et al. (Inorg. Chem., 51(12), (2012) 6803-12) for the hydration reaction (kcat=kobs×(([H^+]/Ka)+1)), and Y.-J. Sun et al. (Inorg. Chem. Commun., 7(2), (2004), 165-168) for the dehydration reaction (kcat=(kobs×([H^+]+Ka))/[H^+]). Each run of 3 repeats was undertaken 3 times and the average taken, to give N=9.
# [2] = Kinetic measurement of CO2 hydration via stopped flow; assay type: biochemical; details: pH 7.4; for Hydration kobs: 25° C.
# Source text: as §1, §2, §3, §4, §5
# Rubisco = target: T1, Rubisco (Spinacia oleracea, UniProt P00875); experiment: Effect of zinc mimics on Rubisco activity (non-radioactive microplate assay, 3-PGA/NADH oxidation); assay type: biochemical; details: pH 8; 0-50 μM zinc mimic; FIGS. 4 to 7
# T1 construct: from tissue; purified by the cited method of O'Donnelly et al., Plant Methods 2014
# Experimental: Rubisco was purified using hydrophobic interaction chromatography as per the method of K. O'Donnelly et al. (Plant methods, 10, (2014), 17). For all assays, the rate was determined using a non-radioactive microplate-based assay, which determines the product 3-phosphoglycerate (3-PGA) through the oxidation of NADH by optical density measurements at 340 nm at 25° C., adapted from R. Sulpice et al. (Plant Cell Environ., 30(9), (2007), 1163-75) and K. O'Donnelly et al. (Plant methods, 10, (2014), 17). A Thermo Scientific Varioskan Flash Multimode microplate reader was used to monitor the oxidation of NADH for 15 minutes every 100 ms.
# The enzymological properties of Rubisco were typically measured as follows: 10 μL Rubisco and 10 μL of initial buffer were incubated for 15 mins, after which 10 μL of ribulose 1,5-biphosphate (RuBP) was added [Final concentrations for Rubisco assay in 30 μL total volume were 0, 10, 20, 40, 80, 150, 300 and 500 μM RuBP, 0.02 mg/mL Rubisco, 100 mM tricine (pH 8.0/NaOH), 20 mM MgCl2, 2 mM EDTA and 10 mM NaHCO3]. […] The activity was calculated as μmol·min^−l·mg^−1 using a calibration curve with 3PGA. […]
# 10 μL of Rubisco and 10 μL of pH 8 initial buffer containing varying concentrations of zinc complex were incubated in a 96 well plate for 15 mins. […] The final pH, after the addition of NaHCO3, and before the addition of Rubisco, was measured as pH 8.0. […]
# [3] = system: spinach (Spinacia oleracea L.); experiment: Effect of zinc mimics on spinach growth (number of new leaves); assay type: in vivo; details: 1.5 mM in DMSO or H2O, 5 μl droplets to each leaf, three times a week for two weeks, FIG. 8
# Experimental: Commercial cultivar spinach seeds (Spinacia oleracea L.) were planted in soil mixture of “John Innes Inc. seed sowing compost No2”: Vermiculite (4:1) in small pots. Spinach seeds were germinated in a Sanyo MLR-352 growth chamber under day (photosynthetically active photon flux density (PPFD) at 110-130 μmol·m-2s-1) and night conditions, changing every 12 hours. Air temperature was maintained at 20° C. and 15° C. during day and night conditions, respectively, with a constant relative humidity at 65%. Spinach plants were irrigated three times a week. At the second true leaf stage (approximately 3 weeks from seed germination), the seeds were transferred into larger singular pots in “John Innes No2—Potting on compost” soil. No extra fertilizer was added.
# At the fourth true leaf stage (roughly 4-6 weeks after germination), the treatment (1.5 mM in DMSO or H2O) was applied directly to each leaf of the plant in 5 μl droplets using a Brand Handystep S. The treatments were applied three times a week (directly after irrigation) for two weeks. The leaf stage and the state of the leaves were observed throughout the treatment period.
# [4] = high substrate concentration (16.9 mM)
# [5] = low substrate concentration (1.69 mM)
rubisco activity (Rubisco),Compound,"Dehydration kobs [1, 4] [M⁻¹ s⁻¹]","Dehydration kobs [1, 5] [M⁻¹ s⁻¹]","Hydration:Dehydration Ratio [2, 4]","Hydration kobs [2, 4] [M⁻¹ s⁻¹]","Hydration:Dehydration Ratio [2, 5]","Hydration kobs [2, 5] [M⁻¹ s⁻¹]","specificity toward dehydration ([1]; from the results in Tables 3 and 4, pH 7.4)",number of new leaves [3]
,"O.[O-][Cl+3]([O-])([O-])[O-].[O-][Cl+3]([O-])([O-])[O-].[Zn+2].c1ccc2sc(CNCc3nc4ccccc4s3)nc2c1 [Zn2S, zinc complex of bis(2-benzothiazolylmethyl)amine]",30.6 ± 0.6,115.2 ± 1.8,0.57,17.5 ± 8.6,3.01,347.1 ± 33.0,,
significant improvement in activity,"O.[O-][Cl+3]([O-])([O-])[O-].[O-][Cl+3]([O-])([O-])[O-].[Zn+2].c1ccc2sc(CN(Cc3nc4ccccc4s3)Cc3nc4ccccc4s3)nc2c1 [Zn3S, zinc complex of tris(2-benzothiazolylmethyl)amine]",37.8 ± 0.8,140.8 ± 4.8,0.65,24.5 ± 10.4,3.05,429.7 ± 51.2,,
,zinc complex of bis(2-benzimidazolylmethyl)(2-benzothiazolylmethyl)amine [Zn2N1S],44.6 ± 1.6,157.6 ± 2.1,0.60,26.6 ± 11.1,3.14,495.4 ± 34.0,,
,zinc complex of bis(2-benzimidazolylmethyl)amine [Zn2N],27.5 ± 0.5,94.1 ± 1.6,0.80,22.0 ± 9.3,3.94,370.6 ± 13.4,,
significant improvement in activity,zinc complex of bis(2-benzothiazolylmethyl)(2-benzimidazolylmethyl)amine [Zn1N2S],51.9 ± 0.5,171.3 ± 4.5,0.49,25.3 ± 8.4,2.57,440.8 ± 24.5,best specificity toward dehydration,
,zinc complex of tris(2-benzimidazolylmethyl)amine [Zn3N],33.8 ± 0.8,124.1 ± 1.8,1.02,34.4 ± 11.3,4.13,512.3 ± 60.3,,significant improvement in the number of new leaves
